Results on four compounds are retold here after patent publication US5508310A, “Immunopotentiatory agents and physiologically acceptable salts thereof” (Burroughs Wellcome Co., priority 1992, dated 1996).

In one data set the test system is Pneumocystis carinii. Conditions: AIDS patients; Wofsy 1986; cited from earlier work.
Data set [1] relates to mononuclear cell fraction of blood from healthy donors immunised with tetanus toxoid. It is filed as cell-based, human (healthy donors).
Data set [2] has as its system mouse colon adenocarcinoma 38 (MCA38). Kind of data set: Antitumour activity: outgrowth of subcutaneously implanted mouse colon adenocarcinoma 38 (MCA38) in C57BL/6 mice. It is filed as in vivo, mouse (C57BL/6). The conditions noted are these: for Tumour weight on day 24 after tumour implantation (individual mice): intraperitoneally, every alternate day, 9 doses, individual animal values; for Mean % red. (tumour weight) / Median % red. (tumour weight): vs controls (group A); for Mean tumour weight on day 24: controls mean 0.635; for Median tumour weight on day 24: controls median 0.636. How it is done: The activity of the tucaresol was evaluated against the outgrowth of subcutaneously implanted mouse colon adenocarcinoma 38 (MCA38) in female C57BL/6 mice, using the following protocol:
Day 0 Fifteen, female and 16 male C57BL/6 mice each im-
planted subcutaneously with one 2 mm cube of tumour.
Mice randomized and divided into three groups -
Group A, 5 females and 5 males, Group B, 5 females
and 5 males, Group C, 5 females and 6 males.
Day 5 Test groups B and C each dosed with 589C80 (1 mg or
to 0.2 mg per mouse dissolved in 0.2 ml PBS,
intraperitoneally) once every alternate day (total of 9
doses). Control mice (group A) given PBS alone.
All mice killed, tumours excised and weighed. Mean and
median tumour weight in test group compared with
Tucaresol was dissolved in PBS by dropwise addition of 1M KOH to pH 10.0 followed by dropwise addition of conc. HCL to return pH to neutral.
Dosing schedule where drug was given on alternate days was chosen in order to extend the dosing period over 14 rather than 7 days. By so doing tumours were exposed to the drug from day 13 right up until […] i.e. 2 days before the experiment was terminated.

Several values for one entry are separate records, joined by “and”; a condition that tells them apart may be missing. Identical values can stand only once.

As for `N=C(N)c1ccc(OCCCCCOc2ccc(C(=N)N)cc2)cc1` [pentamidine], in the data set on Pneumocystis carinii, the “Effectiveness in Pneumocystis carinii pneumonia” value is 50-70% and the “Incidence of adverse reactions” value was “around 50%”.
As for `O=CCCc1ccccc1` [Compound 5, 3-Phenylproponion-aldhyde], in data set [1], the “IC50 Ratio with 4-Hydroxyphenylacetaldehyde” value stood at 40.
Regarding trimethoprim-sulphamethoxazole, the “Effectiveness in Pneumocystis carinii pneumonia” value with Pneumocystis carinii was 50-70%.
On to `O=Cc1c(O)cccc1OCc1ccc(C(=O)O)cc1` [Tucaresol], for which, in data set [2] (Group B, 1.0 mg/mouse), the “Tumour weight on day 24 after tumour implantation (individual mice)” value was 0.740 grammes and 0.695 grammes and 0.358 grammes and 0.303 grammes and 0.298 grammes and 0.090 grammes and 0.079 grammes and 0.038 grammes and 0.022 grammes; the “Mean % red. (tumour weight)” value is on record as 54.2%; the “Median % red. (tumour weight)” value is 53.15%; the “Median tumour weight on day 24” value was 0.298 grammes. Besides, in data set [2] (Group B, 1.0 mg/mouse, S.D. 0.272), the “Mean tumour weight on day 24” value was 0.291 grammes. Besides, in data set [2] (Group C, 0.2 mg/mouse), the “Tumour weight on day 24 after tumour implantation (individual mice)” value is 0.802 grammes and 0.272 grammes and 0.230 grammes and 0.197 grammes and 0.181 grammes and 0.126 grammes and 0.085 grammes and 0.029 grammes and 0.019 grammes and 0.006 grammes; the “Mean % red. (tumour weight)” value was determined as 70.4%; the “Median % red. (tumour weight)” value was determined as 80.19%; the “Median tumour weight on day 24” value came out at 0.126 grammes. Moreover, the “Mean tumour weight on day 24” value in data set [2] (Group C, 0.2 mg/mouse, S.D. 0.222) was determined as 0.188 grammes. Also, the “Inhibition of outgrowth of subcutaneously implanted MCA38” value in data set [2] (syngeneic C57BL/6 mice, result in words) is “inhibited the outgrowth”.
